Data published in US20200306295A1, “METHOD AND DEVICE FOR ANNIHILATION OF Staphylococcus aureus” (priority 2017, published 2020).

System: 200 kinds of cytokines
Assay: Fold change of 200 cytokines in homogenized wound tissue
Type: in vivo, Balb/c mice
Conditions: mean; wound tissue
Source text: To quantify the physiological condition of the wound tissues, we measured the concentrations of 200 kinds of cytokines (Table. 1) from the supernatant of homogenized tissue solution. Cytokines are small secreted proteins released by cells and have specific effect on the interactions and communications between cells (25).
To initiate the formation of a skin wound, five groups (n=5) of eight-week old female Balb/c mice (obtained from Harlan Laboratories, Indianapolis, Ind., USA) were disinfected with ethanol (70%) and shaved on the middle of the back (approximately a one-inch by one-inch square region around the injection site) one day prior to infection as described from a reported procedure (3). To prepare the bacterial inoculum, an aliquot of overnight culture of MRSA USA300 was transferred to fresh Tryptic soy broth and shaken at 37° C. until an OD600 value of ˜1.0 was achieved. The cells were centrifuged, washed once with PBS, re-centrifuged, and then re-suspended in PBS. Mice subsequently received an intradermal injection (40 μL) containing 2.40×10^9 CFU/mL MRSA USA300.
One group of mice was left untreated (negative control). Each group of mice receiving a particular treatment regimen was housed separately in a ventilated cage with appropriate bedding, food, and water. […] Mice were treated twice daily (once every 12 hours) for three days, before they were humanely euthanized via CO2 asphyxiation 12 hours after the last dose was administered. The region around the skin wound was lightly swabbed with ethanol (70%) and excised. The tissue was subsequently homogenized in PBS. The homogenized tissue was then serially diluted in PBS before plating onto mannitol salt agar plates. Plates were incubated for at least 19 hours at 37° C. before viable MRSA CFU/mL were counted for each group. Outlier was removed based upon the Dixon Q Test.

With `OO` [H2O2, hydrogen peroxide] the “fold change of IL-1ra” value was 0.1670, the “fold change of IL-2” value was −0.1860 and the “fold change of IL-2 Ra” value was 0.2015. For the same molecule, the “fold change of IL-3” value was −0.1781, the “fold change of IL-3 Rb” value was −0.0953 and the “fold change of IL-4” value was −0.2011. For the same molecule, the “fold change of IL-5” value was −0.3106, the “fold change of IL-6” value was −0.2775 and the “fold change of IL-7” value was −0.0083. For the same molecule, the “fold change of IL-7 Ra” value was −0.4620, the “fold change of IL-9” value was 0.0482 and the “fold change of IL-10” value was −0.1759. The “fold change of IL-12p40” value was 0.0200, the “fold change of IL-12p70” value was −0.1362 and the “fold change of IL-13” value was −0.4855. For the same molecule, the “fold change of IL-15” value was −0.1351, the “fold change of IL-17” value was 1.4006 and the “fold change of IL-17B” value was −0.2485. The “fold change of IL-17B R” value was 0.0438, the “fold change of IL-17E” value was −0.3214 and the “fold change of IL-17F” value was 0.6993. The “fold change of IL-20” value was −0.1274, the “fold change of IL-21” value was −0.5851 and the “fold change of IL-22” value was −0.5330. The “fold change of IL-23” value was 0.1392, the “fold change of IL-28” value was 0.2046 and the “fold change of IL-33” value was −0.6370. For the same molecule, the “fold change of JAM-A” value was −0.2998, the “fold change of KC” value was −0.0602 and the “fold change of Kremen-1” value was −0.4532. The “fold change of L-Selectin” value was −0.1755, the “fold change of LIX” value was −0.2304 and the “fold change of LOX-1” value was 0.0229. The “fold change of Leptin” value was −0.1401, the “fold change of Leptin R” value was −0.1563 and the “fold change of Limitin” value was 0.5441. The “fold change of Lipocalin-2” value was −0.0669, the “fold change of Lungkine” value was −0.0954 and the “fold change of Lymphotactin” value was 0.0191. For the same molecule, the “fold change of MCP-1” value was 0.9431, the “fold change of MCP-5” value was −0.8808 and the “fold change of MCSF” value was −0.0002. For the same molecule, the “fold change of MDC” value was 0.5488, the “fold change of MFG-E8” value was −0.1414 and the “fold change of MIG” value was −0.1127. For the same molecule, the “fold change of MIP-1a” value was −0.3107, the “fold change of MIP-1b” value was −0.4967 and the “fold change of MIP-1g” value was −0.0241. For the same molecule, the “fold change of MIP-2” value was −0.0277, the “fold change of MIP-3a” value was 0.3267 and the “fold change of MIP-3b” value was −0.1993. For the same molecule, the “fold change of MMP-2” value was −0.5768, the “fold change of MMP-3” value was −0.0983 and the “fold change of MMP-10” value was −0.1476. The “fold change of MadCAM-1” value was −0.3032, the “fold change of Marapsin” value was −0.0476 and the “fold change of Neprilysin” value was −0.2555. For the same molecule, the “fold change of OPG” value was −0.2142, the “fold change of OPN” value was −0.2307 and the “fold change of P-selectin” value was −0.4006. For the same molecule, the “fold change of PDGF-AA” value was −0.4666, the “fold change of PF4” value was −0.7429 and the “fold change of Pentraxin 3” value was −0.7179. The “fold change of Persephin” value was −0.3386, the “fold change of Pro-MMP-9” value was 0.0213 and the “fold change of Prolactin” value was 0.2852. For the same molecule, the “fold change of RAGE” value was −0.0350, the “fold change of RANTES” value was −0.4249 and the “fold change of Resistin” value was −0.3623. The “fold change of SCF” value was 0.1915, the “fold change of SDF-1a” value was −0.0807 and the “fold change of SLAM” value was −0.0883. For the same molecule, the “fold change of Shh-N” value was −0.1527, the “fold change of TACI” value was −0.2636 and the “fold change of TARC” value was −0.4322. The “fold change of TCA-3” value was −0.2756, the “fold change of TCK-1” value was −0.4843 and the “fold change of TECK” value was 0.1734. For the same molecule, the “fold change of TGFb1” value was −0.1570, the “fold change of TNF RI” value was −0.2939 and the “fold change of TNF RII” value was −0.1233. For the same molecule, the “fold change of TNFα” value was 0.1039, the “fold change of TPO” value was −0.0215 and the “fold change of TRANCE” value was 0.0878. The “fold change of TREM-1” value was 0.0703, the “fold change of TROY” value was −0.0721 and the “fold change of TSLP” value was −0.1726. The “fold change of TWEAK” value was −0.1667, the “fold change of TWEAK R” value was −0.4445 and the “fold change of TremL1” value was −0.2695. The “fold change of VCAM-1” value was −0.1357, the “fold change of VEGF” value was −0.0295 and the “fold change of VEGF R1” value was −0.4184. For the same molecule, the “fold change of VEGF R3” value was −0.0705, the “fold change of VEGF-B” value was −0.0693 and the “fold change of VEGF-D” value was −0.0146. The “fold change of bFGF” value was −0.2542, the “fold change of gp130” value was 0.1048 and the “fold change of sFRP-3” value was −0.1892.
